Reference: patent US20240043860A1, “NOVEL HYDROXYPHENYLPYRUVATE DIOXYGENASE POLYPEPTIDES AND METHODS OF USE THEREOF” (Syngenta Crop Protection AG, priority 2020, published 2024)

Assays:
[1] = tested on: transgenic tobacco plants expressing mutant HPPD SEQ ID NO: 9; assay: spray test, herbicidal damage scoring; type: in vivo
Protocol: Avena sativa HPPD or orthologues and variants thereof, for example SEQ IDs 1-63 and 122-127, were expressed in transgenic tobacco. DNA sequences that encode these polypeptides (optimized for tobacco or, optionally, codon optimized according to a target crop such as soybean) were prepared synthetically. Each sequence was designed to include a 5′ fusion with TMV omega 5′ leader sequence such that they are flanked at the 5′ end with XhoI and at the 3′ end with KpnI to facilitate direct cloning into a suitable binary vector for Agrobacterium-based plant transformation.
In one example, the TMV omega 5′ leader and a HPPD encoding gene of interest is excised using XhoI/KpnI and cloned into similarly digested binary vector pBIN 19 (Bevan, Nucl. Acids Res. (1984) behind a double enhanced 35S promoter ahead of a NOS 3′ transcription terminator and then transformed into E. coli DH5 alpha competent cells. DNA recovered from the E. coli is used to transform Agrobacterium tumefaciens LBA4404, and transformed bacteria are selected on media contain rifampicin and kanamycin. Tobacco tissue is subjected to Agrobacterium-mediated transformation using methods well described in the art or as described herein. For example, a master plate of Agrobacterium tumefaciens containing the HPPD expressing the binary vector is used to inoculate 10 ml LB (L broth) containing 100 mg/l Rifampicin plus 50 mg/l Kanamycin using a single bacterial colony. This is incubated overnight at 28° C. shaking at 200 rpm. This entire overnight culture is used to inoculate a 50 ml volume of LB containing the same antibiotics. Again this is cultured overnight at 28° C. shaking at 200 rpm. […]
Plants are assessed for damage and scored at, for example, 7 and 14 days after treatment (DAT). […]
Plants of events showing the least damage are grown to flowering, then bagged and allowed to self. […] Single copy events amongst the Ti plant lines are identified by their 3:1 segregation ratio (with respect to kanamycin and/or herbicide) and by quantitative RT-PCR. […] HPPD expression levels were monitored by Western analysis. […]

[2] = tested on: HPPD variant ALOME V200 (SEQ ID NO: 7); assay: coupled HGO assay; type: biochemical, Alopecurus myosuroides
Protocol: (§1) DNA sequences (SEQ ID NOs: 65-118, 128, 130, 131, and 133), synthesized for expression in E. coli, by GeneWiz (USA) to encode HPPD variants (SEQ ID NOs: 5-58, 122, 124, 125 and 127) derived from either Avena sativa (SEQ ID NOs: 122, 124), Alopecurus myosuroides (SEQ ID NO: 126) or Apera spica-venti (SEQ ID NOs: 123, 125) were transformed into E coli BL21 (DE3) (New England Biolabs) and grown in 0.5 ml Terrific broth +50 ug/ml Kanamycin media in a 96-deepwell block overnight (37° C., 900rpm). 25 ul of the overnight cultures were inoculated into fresh 96-deepwell block containing 1 ml Formedium Autoinduction Media (AIM). The AIM cultures were grown for 3h at 37° C. (900rpm) and then transferred to 20° C. overnight (900rpm) to allow protein expression. The overnight cultures were centrifuged and 500 ul of Cellytic B (Sigma Aldrich) was added to resuspend the cell pellets. The coupled HGO assay (Siehl et al, 2014) is used to generate IC50 values for the HPPD variants of interest.
(§2) E. coli BL21 (DE3) cells were transformed with a pET24a vector containing a C-terminally his-tagged Arabidopsis HGO gene, grown and induced overnight as described for the HPPD variants above. The cell pellet was resuspended in phosphate buffered saline at pH 7.4 containing 10% Glycerol, 1mm Tris[2-carboxyethyl] phosphine-HCl (TCEP) plus 30 mM Imidazole and lysed using lysozyme/benzonase. The extract was clarified by low speed centrifugation and purified in the same buffer down a 1 ml His Gravitrap column. The bound HGO was eluted in 0.25M imidazole and the fractions pooled and beaded into liquid nitrogen. All procedures apart from the centrifugation and beading steps were carried out under a nitrogen atmosphere.
(§3) The coupled HGO assay is carried out by adding 10 ul of HPPD extract to a 96-well plate and then adding 40 ul of reaction buffer (50 mM Bis Tris Propane, pH7.0, 25 mM sodium-L-ascorbate, 400μM mercaptoethanol, 50 μM Fe(II)SO4). The plates are left to incubate for 5 minutes on ice. […] 200 ul of HPP/HGO (197 μM hydroxyphenylpyruvic acid, 16 μl/ml Homogentisic Acid Oxidase in reaction buffer as described above) buffer is then added to the well and the reaction is regularly monitored (e.g. every 30 seconds-5 minutes) for absorbance at 330 nm for a given time period (e.g., for between 15-60 minutes). The data can then be used to calculate the IC50 value for each HPPD variant of interest.

[3] = tested on: HPPD variant ALOME V209 (SEQ ID NO: 19); assay: coupled HGO assay; type: biochemical, Alopecurus myosuroides
Protocol: as §1, §2, §3

Row | SMILES | tolerance ([1]; SEQ ID 9 plants, 100 g/ha (Table 3.4)) | tolerance compared to plants expressing SEQ ID 125 ([1]; SEQ ID 9 plants, 200 g/ha (Table 3.4)) | IC50 [2] | IC50 [3] | damage ([1]; 2000 g/ha, SEQ ID 9 plants compared to plants expressing SEQ IDs 122, 124 or 125)
1 | COc1ccc(-n2nc(C)cc(C(=O)C3C(=O)CCCC3=O)c2=O)cc1OC [Herbicide C, dioxopyritrione] | display tolerance | higher tolerance | – | – | –
2 | Cn1nnnc1NC(=O)c1ccc(C(F)(F)F)nc1-n1cncn1 [Herbicide D, N-(1-methyltetrazol-5-yl)-2-(1,2,4-triazol-1-yl)-6-(trifluoromethyl)pyridine-3-carboxamide] | – | – | 77.8 µM | 96.9 µM | significantly reduced damage
